Our source for the Kd values is publication PMC7530128 (Journal of the American Chemical Society, 2020).

For one test, the target named is T1, CblD (Homo sapiens, UniProt Q9H3L0).
T1 sequence (Q9H3L0 1-296): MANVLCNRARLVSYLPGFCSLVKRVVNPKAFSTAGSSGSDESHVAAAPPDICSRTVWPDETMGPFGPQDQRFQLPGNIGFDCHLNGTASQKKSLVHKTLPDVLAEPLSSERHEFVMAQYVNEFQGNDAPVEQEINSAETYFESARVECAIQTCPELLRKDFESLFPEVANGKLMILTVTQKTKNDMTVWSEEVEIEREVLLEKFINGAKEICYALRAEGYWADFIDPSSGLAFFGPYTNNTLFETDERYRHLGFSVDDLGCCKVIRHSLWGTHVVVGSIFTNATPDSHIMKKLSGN
The test can be described thus: UV-visible titration. Type of test: binding.

Another test has as its target T2, CblC (Homo sapiens, UniProt Q9Y4U1).
T2 chain: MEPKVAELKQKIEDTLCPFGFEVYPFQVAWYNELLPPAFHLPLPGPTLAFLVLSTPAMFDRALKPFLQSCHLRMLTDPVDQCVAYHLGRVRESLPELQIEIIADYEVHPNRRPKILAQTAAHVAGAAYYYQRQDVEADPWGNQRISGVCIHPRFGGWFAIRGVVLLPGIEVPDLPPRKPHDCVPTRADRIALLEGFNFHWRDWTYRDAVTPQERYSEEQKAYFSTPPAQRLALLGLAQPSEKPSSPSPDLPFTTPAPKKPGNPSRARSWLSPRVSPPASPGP
Briefly: ITC.

By Kd is commonly meant the equilibrium constant for the complex coming apart. Lower therefore signals higher affinity. H2OCbl: the Kd at CblD was found to be 1000 ± 400 nM.

B1: CblD (protein)
chain: SDESHVAAAPPDICSRTVWPDETMGPFGPQDQRFQLPGNIGFDCHLNGTASQKKSLVHKTLPDVLAEPLSSERHEFVMAQYVNEFQGNDAPVEQEINSAETYFESARVECAIQTCPELLRKDFESLFPEVANGKLMILTVTQKTKNDMTVWSEEVEIEREVLLEKFINGAKEICYALRAEGYWADFIDPSSGLAFFGPYTNNTLFETDERYRHLGFSVDDLGCCKVIRHSLWGTHVVVGSIFTNATPDSHIMKKLSGN
modifications: cobalamin
In the test with CblC, B1 came in with a dissociation constant Kd of 40 nM.
